Laboratory results published in ChEMBL document CHEMBL2331210, “New 2-benzylsulfanyl-nicotinic acid based 1,3,4-oxadiazoles: their synthesis and biological evaluation” (2013).
≈ marks a conversion by molar mass, not a printed value.

Key:
K562 = assay: Antitumor activity against human K562 cells assessed as cell growth at 0.1 uM; assay type: functional; settings: read-out: Activity
SK-MEL-28 = assay: Antitumor activity against human SK-MEL-28 cells assessed as cell growth at 0.1 uM; assay type: functional; settings: read-out: Activity
[1] = Antitumor activity against human HCC2998 cells assessed as cell growth at 0.1 uM; assay type: functional; settings: HCC 2998, read-out: Activity
T47D = assay: Antitumor activity against human T47D cells assessed as cell growth at 0.1 uM; assay type: functional; settings: read-out: Activity
RXF 393 = assay: Antitumor activity against human RXF393 cells assessed as cell growth at 0.1 uM; assay type: functional; settings: read-out: Activity
DU-145 = assay: Antitumor activity against human DU145 cells assessed as cell growth at 0.1 uM; assay type: functional; settings: read-out: Activity
[2] = Antitumor activity against human EKVX cells assessed as cell growth at 0.1 uM; assay type: functional; settings: read-out: Activity
SF-295 = assay: Antitumor activity against human SF295 cells assessed as cell growth at 0.1 uM; assay type: functional; settings: read-out: Activity
RPMI-8226 = assay: Antitumor activity against human RPMI8226 cells assessed as cell growth at 0.1 uM; assay type: functional; settings: read-out: Activity
PC-3 = assay: Antitumor activity against human PC3 cells assessed as cell growth at 0.1 uM; assay type: functional; settings: read-out: Activity
A549 = assay: Antitumor activity against human A549/ATCC cells assessed as cell growth at 0.1 uM; assay type: functional; settings: read-out: Activity
IGROV-1 = assay: Antitumor activity against human IGROV1 cells assessed as cell growth at 0.1 uM; assay type: functional; settings: read-out: Activity
SNB-75 = assay: Antitumor activity against human SNB75 cells assessed as cell growth at 0.1 uM; assay type: functional; settings: read-out: Activity
Malme-3M = assay: Antitumor activity against human MALME-3M cells assessed as cell growth at 0.1 uM; assay type: functional; settings: read-out: Activity
OVCAR-8 = assay: Antitumor activity against human OVCAR8 cells assessed as cell growth at 0.1 uM; assay type: functional; settings: read-out: Activity
MDA-MB-435 = assay: Antitumor activity against human MDA-MB-435 cells assessed as cell growth at 0.1 uM; assay type: functional; settings: read-out: Activity
HT-29 = assay: Antitumor activity against human HT-29 cells assessed as cell growth at 0.1 uM; assay type: functional; settings: read-out: Activity
NCI-H522 = assay: Antitumor activity against human NCI-H522 cells assessed as cell growth at 0.1 uM; assay type: functional; settings: read-out: Activity
U-251 = assay: Antitumor activity against human U251 cells assessed as cell growth at 0.1 uM; assay type: functional; settings: read-out: Activity
KM12 = assay: Antitumor activity against human KM12 cells assessed as cell growth at 0.1 uM; assay type: functional; settings: read-out: Activity
Aspergillus clavatus = assay: Antimicrobial activity against Aspergillus clavatus MTCC 1323 assessed as growth inhibition measured after overnight incubation by broth dilution method; assay type: functional
SF-268 = assay: Antitumor activity against human SF268 cells assessed as cell growth at 0.1 uM; assay type: functional; settings: read-out: Activity
NCI/ADR-RES = assay: Antitumor activity against human NCI/ADR-RES cells assessed as cell growth at 0.1 uM; assay type: functional; settings: read-out: Activity
SK-MEL-5 = assay: Antitumor activity against human SK-MEL-5 cells assessed as cell growth at 0.1 uM; assay type: functional; settings: read-out: Activity
HCT-116 = assay: Antitumor activity against human HCT116 cells assessed as cell growth at 0.1 uM; assay type: functional; settings: read-out: Activity
NCI-H460 = assay: Antitumor activity against human NCI-H460 cells assessed as cell growth at 0.1 uM; assay type: functional; settings: read-out: Activity
OVCAR-3 = assay: Antitumor activity against human OVCAR3 cells assessed as cell growth at 0.1 uM; assay type: functional; settings: read-out: Activity
MCF7 = assay: Antitumor activity against human MCF7 cells assessed as cell growth at 0.1 uM; assay type: functional; settings: read-out: Activity
SR = assay: Antitumor activity against human SR cells assessed as cell growth at 0.1 uM; assay type: functional; settings: read-out: Activity
TK-10 = assay: Antitumor activity against human TK10 cells assessed as cell growth at 0.1 uM; assay type: functional; settings: read-out: Activity
Staphylococcus aureus = assay: Antimicrobial activity against Staphylococcus aureus MTCC 96 assessed as growth inhibition measured after overnight incubation by broth dilution method; assay type: functional
MDA-MB-468 = assay: Antitumor activity against human MDA-MB-468 cells assessed as cell growth at 0.1 uM; assay type: functional; settings: read-out: Activity
OVCAR-5 = assay: Antitumor activity against human OVCAR5 cells assessed as cell growth at 0.1 uM; assay type: functional; settings: read-out: Activity
HL-60 = assay: Antitumor activity against human HL60(TB) cells assessed as cell growth at 0.1 uM; assay type: functional; settings: read-out: Activity
HCT-15 = assay: Antitumor activity against human HCT15 cells assessed as cell growth at 0.1 uM; assay type: functional; settings: read-out: Activity
LOX IMVI = assay: Antitumor activity against human LOXIMVI cells assessed as cell growth at 0.1 uM; assay type: functional; settings: read-out: Activity
NCI-H23 = assay: Antitumor activity against human NCI-H23 cells assessed as cell growth at 0.1 uM; assay type: functional; settings: read-out: Activity
SF-539 = assay: Antitumor activity against human SF539 cells assessed as cell growth at 0.1 uM; assay type: functional; settings: read-out: Activity
M14 = assay: Antitumor activity against human M14 cells assessed as cell growth at 0.1 uM; assay type: functional; settings: read-out: Activity
SK-MEL-2 = assay: cells; settings: Homo sapiens, SK-MEL-2, read-out: Activity
Description: Antitumor activity against human SK-MEL-2 cells assessed as cell growth at 0.1 uM

CAKI-1 = assay: Antitumor activity against human CAKI-1 cells assessed as cell growth at 0.1 uM; assay type: functional; settings: read-out: Activity
SK-OV-3 = assay: Antitumor activity against human SKOV3 cells assessed as cell growth at 0.1 uM; assay type: functional; settings: read-out: Activity
MOLT-4 = assay: Antitumor activity against human MOLT4 cells assessed as cell growth at 0.1 uM; assay type: functional; settings: read-out: Activity
ACHN = assay: Antitumor activity against human ACHN cells assessed as cell growth at 0.1 uM; assay type: functional; settings: read-out: Activity
Escherichia coli = assay: Antimicrobial activity against Escherichia coli MTCC 443 assessed as growth inhibition measured after overnight incubation by broth dilution method; assay type: functional
SNB-19 = assay: Antitumor activity against human SNB19 cells assessed as cell growth at 0.1 uM; assay type: functional; settings: read-out: Activity
Candida albicans = assay: Antimicrobial activity against Candida albicans MTCC 227 assessed as growth inhibition measured after overnight incubation by broth dilution method; assay type: functional
SN12C = assay: Antitumor activity against human SN12C cells assessed as cell growth at 0.1 uM; assay type: functional; settings: read-out: Activity
SW-620 = assay: Antitumor activity against human SW620 cells assessed as cell growth at 0.1 uM; assay type: functional; settings: read-out: Activity
UACC-62 = assay: Antitumor activity against human UACC62 cells assessed as cell growth at 0.1 uM; assay type: functional; settings: read-out: Activity
[3] = Antitumor activity against human Hs 578T cells assessed as cell growth at 0.1 uM; assay type: functional; settings: read-out: Activity
BT-549 = assay: Antitumor activity against human BT549 cells assessed as cell growth at 0.1 uM; assay type: functional; settings: read-out: Activity
UACC-257 = assay: Antitumor activity against human UACC257 cells assessed as cell growth at 0.1 uM; assay type: functional; settings: read-out: Activity
HOP-62 = assay: Antitumor activity against human HOP62 cells assessed as cell growth at 0.1 uM; assay type: functional; settings: read-out: Activity
Streptococcus pyogenes = assay: Antimicrobial activity against Streptococcus pyogenes MTCC 442 assessed as growth inhibition measured after overnight incubation by broth dilution method; assay type: functional
CCRF-CEM = assay: Antitumor activity against human CCRF-CEM cells assessed as cell growth at 0.1 uM; assay type: functional; settings: read-out: Activity
UO-31 = assay: Antitumor activity against human UO31 cells assessed as cell growth at 0.1 uM; assay type: functional; settings: read-out: Activity
MDA-MB-231 = assay: Antitumor activity against human MDA-MB-231/ATCC cells assessed as cell growth at 0.1 uM; assay type: functional; settings: read-out: Activity
A498 = assay: Antitumor activity against human A498 cells assessed as cell growth at 0.1 uM; assay type: functional; settings: read-out: Activity
Aspergillus niger = assay: Antimicrobial activity against Aspergillus niger MTCC 282 assessed as growth inhibition measured after overnight incubation by broth dilution method; assay type: functional
OVCAR-4 = assay: Antitumor activity against human OVCAR4 cells assessed as cell growth at 0.1 uM; assay type: functional; settings: read-out: Activity
Pseudomonas aeruginosa = assay: Antimicrobial activity against Pseudomonas aeruginosa MTCC 2488 assessed as growth inhibition measured after overnight incubation by broth dilution method; assay type: functional
NCI-H226 = assay: Antitumor activity against human NCI-H226 cells assessed as cell growth at 0.1 uM; assay type: functional; settings: read-out: Activity
[4] = system: Mycobacterium tuberculosis; assay: Antitubercular activity against Mycobacterium tuberculosis H37Rv assessed as growth inhibition after 12 to 28 days by L.J. agar MIC method; assay type: functional

With Cc1cnc(NC(=O)CSc2nnc(-c3cccnc3SCc3ccccc3)o2)s1 the growth at 0.1 µM (K562) was 77.2%, the growth at 0.1 µM (SK-MEL-28) was 106% and the growth at 0.1 µM [1] was 89.5%. For the same molecule, the growth at 0.1 µM (T47D) was 37.5%, the growth at 0.1 µM (RXF 393) was 73% and the growth at 0.1 µM (DU-145) was 58%. For the same molecule, the growth at 0.1 µM [2] was 72.1%, the growth at 0.1 µM (SF-295) was 90.1% and the growth at 0.1 µM (RPMI-8226) was 63.9%. For the same molecule, the growth at 0.1 µM (PC-3) was 46.4%, the growth at 0.1 µM (A549) was 51% and the growth at 0.1 µM (IGROV-1) was 58.5%. The growth at 0.1 µM (SNB-75) was 70.6%, the growth at 0.1 µM (Malme-3M) was 100% and the growth at 0.1 µM (OVCAR-8) was 70.3%. The growth at 0.1 µM (MDA-MB-435) was 96.5%, the growth at 0.1 µM (HT-29) was 81.6% and the growth at 0.1 µM (NCI-H522) was 18.5%. The growth at 0.1 µM (U-251) was 72.8%, the growth at 0.1 µM (KM12) was 44.9% and the MIC (Aspergillus clavatus) was 1000 µg/mL (≈ 2190 µM). The growth at 0.1 µM (SF-268) was 59.1%, the growth at 0.1 µM (NCI/ADR-RES) was 74% and the growth at 0.1 µM (SK-MEL-5) was 78%. It also gave a growth at 0.1 µM (HCT-116) of 82.4%, a growth at 0.1 µM (NCI-H460) of 81.1% and a growth at 0.1 µM (OVCAR-3) of 82.2%. For the same molecule, the growth at 0.1 µM (MCF7) was 62.8%, the growth at 0.1 µM (SR) was 67.9% and the growth at 0.1 µM (TK-10) was 82.3%. The MIC (Staphylococcus aureus) was 125 µg/mL (≈ 274 µM), the growth at 0.1 µM (MDA-MB-468) was 57.5% and the growth at 0.1 µM (OVCAR-5) was 87.5%. For the same molecule, the growth at 0.1 µM (HL-60) was 49.8%, the growth at 0.1 µM (HCT-15) was 77.3% and the growth at 0.1 µM (LOX IMVI) was 73.1%. It also gave a growth at 0.1 µM (NCI-H23) of 80.6%, a growth at 0.1 µM (SF-539) of 85.5% and a growth at 0.1 µM (M14) of 84.1%. The growth at 0.1 µM (SK-MEL-2) was 94%, the growth at 0.1 µM (CAKI-1) was 75.3% and the growth at 0.1 µM (SK-OV-3) was 96.2%. It also gave a growth at 0.1 µM (MOLT-4) of 41.8%, a growth at 0.1 µM (ACHN) of 66.5% and an MIC (Escherichia coli) of 200 µg/mL (≈ 439 µM). It also gave a growth at 0.1 µM (SNB-19) of 65.3%, an MIC (Candida albicans) of 250 µg/mL (≈ 549 µM) and a growth at 0.1 µM (SN12C) of 46.3%. For the same molecule, the growth at 0.1 µM (SW-620) was 90%, the growth at 0.1 µM (UACC-62) was 71.7% and the growth at 0.1 µM [3] was 86.2%. It also gave a growth at 0.1 µM (BT-549) of 75.7%, a growth at 0.1 µM (UACC-257) of 94.9% and a growth at 0.1 µM (HOP-62) of 81.1%. It also gave an MIC (Streptococcus pyogenes) of 62.5 µg/mL (≈ 137 µM), a growth at 0.1 µM (CCRF-CEM) of 37.8% and a growth at 0.1 µM (UO-31) of 22.2%. The growth at 0.1 µM (MDA-MB-231) was 11%, the growth at 0.1 µM (A498) was 73.7% and the MIC (Aspergillus niger) was 1000 µg/mL (≈ 2190 µM). It also gave a growth at 0.1 µM (OVCAR-4) of 67%, an MIC (Pseudomonas aeruginosa) of 62.5 µg/mL (≈ 137 µM) and a growth at 0.1 µM (NCI-H226) of 70.2%. For the same molecule, the “growth inhibition (GI)” value [4] was 99% and the MIC ([4]; Mycobacterium tuberculosis, H37Rv) was 50 µg/mL (≈ 110 µM).
